From PubChem BioAssay (NCI) come the findings set out here.

Among the test systems are MDA-N; HOP-18 NSCLC; DMS 114 small cell lung; KM20L2 colon; DLD-1 colon; M19-MEL melanoma; XF 498 CNS; RXF-631 renal; SNB-78 CNS; P388 leukemia; P388/ADR leukemia.
Assay in all cases: NCI tumour cell line growth inhibition, 48 h

Several values for one entry are separate records, joined by “and”; a condition that tells them apart may be missing. Equal entries are not always repeated.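 A five-concentration, 48-hour dose response in 96-well plates underlies each endpoint, interpolated linearly between surrounding concentrations. The concentration for 50% growth inhibition is given as GI50. TGI: concentration producing complete growth inhibition.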 Bounds are passed on as bounds.

`Cc1ccc(CNc2ccc(Br)cc2)cc1` yielded a TGI with MDA-N greater than 100000 nM.
Turning to `C[C@H]1CC[P+](Cc2ccccc2)(c2ccccc2)C1` (some centres undefined), the TGI with HOP-18 NSCLC, in the assay with DMS 114 small cell lung, in the assay on KM20L2 colon, in the assay with DLD-1 colon and in the assay with M19-MEL melanoma was greater than 100 µM each time.
As for `COc1ccccc1NC(=O)C1=C(C)NC(C)=C(C(=O)Nc2ccccc2OC)C1c1ccccc1[N+](=O)[O-]`, the TGI is 46.2 µM with XF 498 CNS; greater than 100 µM with HOP-18 NSCLC; 53.6 µM in the assay on RXF-631 renal; 31.2 µM in the assay on DMS 114 small cell lung; 36.5 µM in the assay with DLD-1 colon; greater than 100 µM in the assay on SNB-78 CNS. Also, in the assay with M19-MEL melanoma, the TGI was determined as 49 µM.
Regarding `COc1cccc2c1-c1nc(N)c3c(OC)cccc3c1C2=O`, the TGI in the assay on MDA-N was greater than 100000 nM.
As to `Cc1ccc(NC(=O)CCCC(=O)CC(=O)c2ccc(Br)cc2)cc1`, the TGI with HOP-18 NSCLC, in the assay with RXF-631 renal, in the assay with DMS 114 small cell lung, with KM20L2 colon, in the assay with DLD-1 colon and with SNB-78 CNS was greater than 100 µM in each case. Also, the TGI with M19-MEL melanoma is greater than 100 µM.
With `O=C(c1ccc(O)cc1O)C1C(c2ccc(O)cc2)OC(c2ccc(O)cc2)C1C(=O)c1ccc(O)cc1O` (centres undefined), the TGI was 32.3 µM in the assay with XF 498 CNS; greater than 100 µM in the assay with KM20L2 colon; greater than 100 µM with DLD-1 colon; greater than 100 µM in the assay on SNB-78 CNS; 36.5 µM in the assay on M19-MEL melanoma.
In the case of `Cc1ccc(NC(=O)CCc2nc(=S)[nH][nH]2)cc1`, the TGI in the assay with XF 498 CNS, in the assay with HOP-18 NSCLC, in the assay with RXF-631 renal, with DMS 114 small cell lung, with KM20L2 colon and in the assay on DLD-1 colon was greater than 100 µM throughout. Besides, the TGI in the assay with SNB-78 CNS and with M19-MEL melanoma was greater than 100 µM each time.
As to `Nc1nncc2c1c(Br)cn2C1OC(CO)C(O)C1O` (centres undefined), the TGI with XF 498 CNS is greater than 100 µM; in the assay on HOP-18 NSCLC it was greater than 100 µM; in the assay on RXF-631 renal, greater than 100 µM; in the assay with DMS 114 small cell lung it was 62.6 µM; in the assay with KM20L2 colon it was greater than 100 µM; in the assay on DLD-1 colon, greater than 53 µM. Further, the TGI in the assay with SNB-78 CNS and in the assay with M19-MEL melanoma was greater than 100 µM in each case.
As for `CC(=O)C1CCN(c2ccccc2)C1` (centres undefined), the TGI in the assay on XF 498 CNS, in the assay on DMS 114 small cell lung, in the assay with DLD-1 colon, in the assay on SNB-78 CNS and in the assay on M19-MEL melanoma was greater than 100 µM throughout.
Turning to `COc1cc(C2c3cc4c(cc3[C@@H](NCCN(C)C)C3COC(=O)[C@H]23)OCO4)cc(OC)c1O` (some centres undefined), the TGI in the assay with XF 498 CNS is 0.978 µM and 2.02 µM; in the assay with HOP-18 NSCLC it was 2.63 µM and 6.98 µM; with DMS 114 small cell lung it was 0.533 µM and 2.11 µM; with KM20L2 colon, 2.16 µM and 3.62 µM; in the assay on DLD-1 colon it was 4.03 µM and 7.43 µM; with SNB-78 CNS, 68.3 µM and 77.8 µM. For the same compound, the TGI in the assay with M19-MEL melanoma is 4.11 µM and 7.18 µM. Besides, the GI50 with HOP-18 NSCLC is 108 nM and 428 nM; in the assay with DMS 114 small cell lung, 49.1 nM and 347 nM; with KM20L2 colon, 425 nM and 1140 nM; in the assay on SNB-78 CNS it was 1240 nM and 3250 nM.
`O=C1c2ccccc2C(=O)c2cc3c(cc21)CS(=O)C3`: the TGI in the assay on HOP-18 NSCLC, with DMS 114 small cell lung, in the assay with KM20L2 colon, in the assay with DLD-1 colon and with M19-MEL melanoma was greater than 100 µM throughout.
Regarding `CC(C)(C)c1cc(CCC(=O)Nc2ccc(Cl)cc2)[nH]c(=S)n1`, the TGI with XF 498 CNS, with HOP-18 NSCLC, in the assay on RXF-631 renal, in the assay with DMS 114 small cell lung, in the assay with KM20L2 colon and in the assay with DLD-1 colon was greater than 100 µM in each case. Besides, the TGI in the assay on M19-MEL melanoma is greater than 100 µM.
In turn, `O=C1CC2OCC=C3CN4CCC56c7ccccc7N1C5C2C3CC46O` (centres undefined) had a TGI with MDA-N greater than 100000 nM.
For `CCCNC(=O)Nc1c([N+](=O)[O-])cc(C(F)(F)F)cc1[N+](=O)[O-]`, the TGI in the assay with XF 498 CNS was greater than 100 µM; in the assay on RXF-631 renal, greater than 100 µM; in the assay on KM20L2 colon it was 61.4 µM; in the assay on SNB-78 CNS, greater than 100 µM; in the assay on M19-MEL melanoma it was 69.1 µM.
As to `O=C(O/N=C1\CCCC\C1=C/c1ccccc1)c1ccc([N+](=O)[O-])cc1`, the TGI with HOP-18 NSCLC, in the assay with RXF-631 renal, with DMS 114 small cell lung, in the assay on KM20L2 colon, in the assay with DLD-1 colon and in the assay on SNB-78 CNS was greater than 100 µM in each case. The compound also came in with a TGI in the assay on M19-MEL melanoma greater than 100 µM.
On to `COC1C2C[C@@H](O)CCC2C(C(=O)OCCl)C[C@H]1O` (some centres undefined), for which the TGI in the assay with HOP-18 NSCLC, with RXF-631 renal, in the assay on DMS 114 small cell lung, in the assay with KM20L2 colon, with DLD-1 colon and with SNB-78 CNS was greater than 100 µM throughout. In addition, the TGI in the assay on M19-MEL melanoma was greater than 100 µM.
Turning to `COC1=C(N)C(=O)c2nc(-c3nc(C(=O)O)c(C)c(-c4ccc(OC)c(OC)c4O)c3N)ccc2C1=O`, the TGI with P388 leukemia is 0.473 µM; with P388/ADR leukemia it was 0.402 µM; in the assay on XF 498 CNS, 0.0179 µM; with HOP-18 NSCLC, 0.0395 µM; in the assay on DMS 114 small cell lung, 0.0118 µM; in the assay with MDA-N, 26.9 nM and 15.3 nM. The TGI in the assay on KM20L2 colon was 1.12 µM and 0.184 µM; in the assay on DLD-1 colon, 0.0524 µM; in the assay on SNB-78 CNS, 0.0324 µM and 0.0996 µM; with M19-MEL melanoma, 0.0224 µM and 0.0234 µM. Moreover, the GI50 with MDA-N was 11.7 nM.
Take `O=C1C(c2ccccc2)=C(c2ccccc2)C(c2ccc(Cc3ccc(C4=C(c5ccccc5)C(=O)C(c5ccccc5)=C4c4ccccc4)cc3)cc2)=C1c1ccccc1`: the TGI in the assay on XF 498 CNS, in the assay with HOP-18 NSCLC, with DMS 114 small cell lung, in the assay on KM20L2 colon, in the assay on DLD-1 colon and in the assay on SNB-78 CNS was greater than 100 µM each time. The same compound had a TGI in the assay with M19-MEL melanoma greater than 100 µM.
For the compound `O=S1(=O)N2CN3CN(C2)CN1C3`, the TGI with P388 leukemia was 47.6 µM; in the assay with P388/ADR leukemia, 44 µM; in the assay with HOP-18 NSCLC it was > 86.4 µM and 91.6 µM; in the assay with DMS 114 small cell lung, 55.3 µM; with KM20L2 colon, 180 µM; in the assay with DLD-1 colon it was 96.8 µM and 97.5 µM. Besides, the TGI in the assay on SNB-78 CNS amounted to 118 µM; with M19-MEL melanoma, 337 µM. For the same compound, the GI50 in the assay on HOP-18 NSCLC was 24700 nM; in the assay with KM20L2 colon, 37100 nM; with DLD-1 colon, 30.1 µM.
